According to ChEMBL document CHEMBL1158576, “Coumabiocins A-F, aminocoumarins from an organic extract of Streptomyces sp. L-4-4” (2010):
Active and inactive are the calls of the source. The calls are words filed in the database; no cut-off is given here.

What was measured:
[1] = test system: Streptomyces; test: Growth inhibition in Streptomyces 85E at 10 ug/disk by hyphae formation inhibition assay; assay type: functional, organism-based
[2] = test system: Streptomyces; test: Growth inhibition in Streptomyces 85E at 20 ug/disk by hyphae formation inhibition assay; assay type: functional, organism-based
[3] = test system: Streptomyces; test: Growth inhibition in Streptomyces 85E at 2.5 ug/disk by hyphae formation inhibition assay; assay type: functional, organism-based
[4] = test system: Streptomyces; test: Growth inhibition in Streptomyces 85E at 5 ug/disk by hyphae formation inhibition assay; assay type: functional, organism-based
[5] = test system: Streptomyces; test: Growth inhibition in Streptomyces 85E assessed as bald phenotype around disk at 5 ug/disk by hyphae formation inhibition assay; assay type: functional; details: read-out: IZ
[6] = test system: Streptomyces; test: Growth inhibition in Streptomyces 85E assessed as clear zone of inhibition at 10 ug/disk by hyphae formation inhibition assay; assay type: functional; details: read-out: IZ
[7] = test system: Streptomyces; test: Growth inhibition in Streptomyces 85E assessed as clear zone of inhibition at 20 ug/disk by hyphae formation inhibition assay; assay type: functional; details: read-out: IZ
[8] = test system: Streptomyces; test: Growth inhibition in Streptomyces 85E assessed as bald phenotype around disk at 10 ug/disk by hyphae formation inhibition assay; assay type: functional; details: read-out: IZ
[9] = test system: Streptomyces; test: Growth inhibition in Streptomyces 85E assessed as bald phenotype around disk at 20 ug/disk by hyphae formation inhibition assay; assay type: functional; details: read-out: IZ
[10] = test system: Streptomyces; test: Growth inhibition in Streptomyces 85E assessed as clear zone of inhibition at 5 ug/disk by hyphae formation inhibition assay; assay type: functional; details: read-out: IZ
[11] = test system: Streptomyces; test: Growth inhibition in Streptomyces 85E assessed as bald phenotype around disk at 2.5 ug/disk by hyphae formation inhibition assay; assay type: functional; details: read-out: IZ

| SMILES | inhibition zone (IZ) [1] | inhibition zone (IZ) [2] | inhibition zone (IZ) [3] | inhibition zone (IZ) [4] | zone of inhibition at 5 µg/disc [5] [mm] | zone of inhibition at 10 µg/disc [6] [mm] | zone of inhibition at 20 µg/disc [7] [mm] | zone of inhibition at 10 µg/disc [8] [mm] | zone of inhibition at 20 µg/disc [9] [mm] | zone of inhibition at 5 µg/disc [10] [mm] | zone of inhibition at 2.5 µg/disc [11] [mm] |
| --- | --- | --- | --- | --- | --- | --- | --- | --- | --- | --- | --- |
| C=C(C)C(O)Cc1cc(C(=O)Nc2c(O)c3ccc(O)c(C)c3oc2=O)ccc1O (configuration not stated) | inactive | inactive | inactive | inactive | – | – | – | – | – | – | – |
| CO[C@@H]1[C@@H](OC(N)=O)[C@@H](O)[C@H](Oc2ccc3c(O)c(NC(=O)c4ccc5c(c4)CC(C(C)C)O5)c(=O)oc3c2C)OC1(C)C (some centres not stated) [COMABIOCIN B] | – | – | inactive | – | 10 | 12 | 14 | – | – | – | – |
| CO[C@@H]1[C@@H](OC(N)=O)[C@@H](O)[C@H](Oc2ccc3c(O)c(NC(=O)c4ccc5c(c4)CC(C(C)(C)O)O5)c(=O)oc3c2C)OC1(C)C (some centres not stated) [COUMABIOCIN A] | inactive | – | inactive | inactive | – | – | 13 | – | – | – | – |
| CO[C@@H]1[C@@H](OC(N)=O)[C@@H](O)[C@H](Oc2ccc3c(O)c(NC(=O)c4ccc5c(c4)CCC(C)(C)O5)c(=O)oc3c2C)OC1(C)C [COUMABIOCIN C] | – | – | inactive | inactive | – | 10 | 15 | – | – | – | – |
| CO[C@@H]1[C@@H](OC(N)=O)[C@@H](O)[C@H](Oc2ccc3c(O)c(NC(=O)c4ccc5c(c4)CC(O)C(C)(C)O5)c(=O)oc3c2C)OC1(C)C (some centres not stated) [COUMABIOCIN D] | inactive | – | inactive | inactive | – | – | 10 | – | – | – | – |
| C=C(C)C(O)Cc1cc(C(=O)Nc2c(O)c3ccc(O[C@@H]4OC(C)(C)[C@H](OC)[C@@H](OC(N)=O)[C@H]4O)c(C)c3oc2=O)ccc1O (some centres not stated) [COUMABIOCIN E] | inactive | – | inactive | inactive | – | – | 11 | – | – | – | – |
| CO[C@@H]1[C@@H](O)[C@@H](OC(N)=O)[C@H](Oc2ccc3c(O)c(NC(=O)c4ccc(O)c(CC=C(C)C)c4)c(=O)oc3c2C)OC1(C)C [ISONOVOBIOCIN] | – | – | inactive | inactive | – | – | – | 9 | 10 | – | – |
| CO[C@@H]1[C@@H](OC(N)=O)[C@@H](O)[C@H](Oc2ccc3c(O)c(NC(=O)c4ccc(O)c(CC=C(C)C)c4)c(=O)oc3c2C)OC1(C)C [NOVOBIOCIN] | – | – | – | – | – | 18 | 20 | – | – | 15 | 18 |
